Laboratory results: patent US6992068B2 (Gifu Shellac Mfg., Co., Ltd., priority 2000, dated 2006)

Experiments:
[1] = system: cytokine production; assay: Experiment 6: inhibition of cytokine production by purified periandrins, same manner as Experiment 1; format: in vivo, rats; conditions: 0.1-3 mg/Kg of body weight per injection
Protocol: (§1) In this case, however, the number of groups of rats were made six, one of which includes the rats to which PD-I was injected, another of which includes the rats to which PD-II was injected, another of which includes the rats to which PD-III was injected, another of which includes the rats to which PD-IV was injected, another of which includes the rats to which prednisolone acetate was injected, and another of which includes the rats to which a solvent without any drugs was injected.
(§2) The dose per one injection of PD-I, PD-II, PD-III and PD-IV was 0.1-3 mg/Kg of body weight.
(§3) The dose per one injection of prednisolone acetate was 5 mg/Kg of body weight.

[2] = target: T1, 11 β-hydroxysteroid dehydrogenase (Rattus norvegicus, UniProt P16232); assay: Experiment 5: inhibition of 11 β-hydroxysteroid dehydrogenase activity (rat liver microsome, cortisone by HPLC); format: biochemical; conditions: for inhibitory activity relative to glycirrhizin: from IC50 values; for IC50: rat liver microsome, substrate hydrocortisone, NADP 1 mM, pH 8.0, read-out: IC50 (concentration in which 50 percent of enzyme activity is inhibited)
T1 construct: Fresh rat liver was ice-cooled and homogenized in 0.25 M sucrose solution; from tissue; host or cells: rat liver microsome fraction
Protocol: In order to evaluate the effect of inhibiting 11 β-hydeoxysteroid dehydrogenase activity by the purified periandrins (PD-I, PD-II, PD-III, PD-IV) obtained in Example 4 or 5, IC 50 values (concentration in which the 50 percent of activity of the above enzyme is inhibited) of the purified periandrins were measured by the following steps I-VI.
I. An enzymatic solution containing rat liver microsome as a preparation of 11 β-hydroxysteroid dehydrogenase was prepared as below.
Fresh rat liver was ice-cooled and homogenized in 0.25 M sucrose solution. Then, at the temperature of 4° C., it was centrifuged for 20 minutes at 10,000×g.
After separating cell organelles of the nucleus, mitochondria and lysosome as deposits, the supernatant layer was further centrifuged at 105,000×g for 60 minutes at the temperature of 4° C. to obtain a microsome fraction as a precipitate.
The obtained microsome fraction was suspended by 0.25 M sucrose solution to produce an enzymatic solution, and the obtained solution was stored at the temperature of −20 degrees till the time of measurement of enzyme activity.
1 mM of NADP (product of Oriental Yeast Co., Ltd,) as a coenzyme and an amount of PD-I having a predetermined concentration (ranging from 2 to 1480 μM) as an inhibitor were added to 0.8 ml of Tris-HCI buffer solution having the concentration of 100 mM (PH8.0).
0.2 ml of the enzymatic solution prepared in step I was added to the obtained solution, and after three minutes of preincubation at 37° C., 0.02 ml of 5 mM hydrocortisone solution which was dissolved in methanol was added to start a reaction between 11 β-hydroxysteroid dehydrogenase and PD-I. The reaction was continued for 30 minutes at the temperature of 30° C., and then it was stopped by adding 0.5 ml of ethyl acetate.
This solution was centrifuged and an ethyl acetate layer was separated into an Eppendorf tube. In the mean time, cortisone and substrate hydrocortisone generated by the reaction between 11 β-hydroxysteroid dehydrogenase and substrate hydrocortisone are transferred to the ethyl acetate layer.
Furthermore, the water phase after the centrifuge was again centrifuged in the same manner as above by adding 0.5 ml of ethyl acetate to separate an ethyl acetate layer. This process was repeated two more times.
The ethyl acetate layers obtained by three time extraction were put together into an Eppendorf tube and dried using a centrifugal evaporator.
To prepare a measurement sample, 0.2 ml of methanol was added into the Eppendorf tube in which the ethyl acetate layers were dried in step II, and then the tube was left for a night so that cortisone was completely dissolved. Cortisone was determined using HPLC.
Particularly, quantity of cortisone contained in the sample was calculated from a ratio of a peak area corresponding to cortisone when the measurement sample was introduced to HPLC to a peak area when 5 μl of standard solution (0.1 mg/ml of cortisone-methanol solution) was introduced.
The measurement conditions of HPLC were as follows.
IV. Relative activity (ratio of activity remained after reaction with an inhibitor to the initial activity) of 11 β-hydroxysteroid dehydrogenase was calculated from the quantity of cortisone in accordance with the following equation. Relative activity=((CI−CBL)/(CT−CBL))×100(%) • where • CT: cortisone quantity generated when no inhibitor is added; • CI: cortisone quantity generated when an inhibitor exists; and • CBL: cortisone quantity when enzyme is not added.
V. Measurement of relative activity when PD-II, PD-III, PD-IV, and glycirrhizin were added as an inhibitor instead of PD-I was performed in the same manner as in steps I-IV.
The concentration of the inhibitor PD-I, PD-II, PD-III or PD-IV in the measurement of relative activity is a predetermined value ranging from 2 to 1480 μM. The concentration of glycirrhizin is a predetermined value ranging from 0.2 to 445 μM. […]

[3] = system: collagen induction arthritis model; assay: Experiment 2: collagen induction arthritis model, arthritis index; format: in vivo, mice; conditions: for symptoms of arthritis: purified periandrins in the model of Experiment 2; for arthritis index (ranking 0-5), group average: 5 mg/head i.p. every other day
Protocol: Clinical symptoms of arthritis of mice in the respective groups were evaluated by one and the same observer using 6 rankings from zero to five (the larger the value is, the worse the symptom is), and the averages per the respective groups were calculated. These evaluations were performed in 0, 3rd, 4th, 5th, 6th, 7th and 8th week after the first immunity The results were shown in FIG. 3 and Table 3.

[4] = system: liver function; assay: Experiment 6: protecting and promoting liver function by purified periandrins, same manner as Experiment 1; format: in vivo, rats; conditions: 0.1-3 mg/Kg of body weight per injection
Protocol: as §1, §2, §3

[5] = system: autoimmune encephalomyelitis model; assay: Experiment 3: autoimmune encephalomyelitis model, clinical score; format: in vivo, rats; conditions: for symptoms of encephalomyelitis: purified periandrins in the model of Experiment 3
[6] = system: glutamic-oxaloacetic transaminase activity (GOT); assay: Experiment 1: blood GOT activity in mice with Propionivacterium acnes / lipopolysaccharide induced hepatopathy; format: in vivo; conditions: groups B (Brazilian licorice extract, 25 mg), D (Chinese licorice extract, 25 mg), F (prednisolone acetate 5 mg); i.p. four times
Protocol: (§4) The following experiment was performed to examine the effects of inhibiting cytokine production and lowering GOT activity of the extracts obtained in Example 1 and Comparative Example 1. Male mice of ddy system (Japan SLC, Inc.), each of which weighs 18-20 g, are prepared for the experiment. […] 5 mg of Propionivacterium acnes suspension was injected into the vein of the aforementioned mice respectively, to cause hepatopathy. […] 10 μg of lipopolysaccharide was injected into the vein of the mice in all groups respectively, thirty minutes after the fourth injection in step II (as to the mice in group A, the injection was performed at the same timing as the mice in the other groups). Then, two hours later, blood was taken from all the mice to obtain serum. There was no visible change in weight and food and water consumption of the mice. From the serum obtained in step III, glutamic-oxaloacetic transaminase activity (GOT) was measured. For the measurement, a commercially available measurement kit which adopts Enzyme Linked immuno-Sorbent Assay using enzyme labeling antibody was used. […] Units.

[7] = Experiment 4: weight changes of rats in autoimmune encephalomyelitis model; format: in vivo; conditions: 5 mg/Kg of body weight per injection
Protocol: The immunosuppressive effect of the BL. 1, BL. 2 and […].
The manner of experiment was basically the same as the aforementioned Experiment 3.
However, the number of groups of rats were reduced to five, one of which included the rats to which the BL. 1 was injected, another of which included the rats to which the BL. 2 was injected, another of which included the rats to which the BL. 3 was injected, another of which included the rats to which prednisolone acetate was injected, and another of which included the rats without injection.
The dose per one injection of BL. 1, BL. 2 and BL. 3 was 6 mg/head and in the form of physiological saline.
The dose per one injection of prednisolone acetate was 5 mg/Kg of body weight and in the form of physiological saline.

[8] = extracts of Example 2 / Comparative Example 2 6 and 12.5 mg/head, prednisolone acetate 5 mg/Kg, i.p. every other day, eight weeks
[9] = system: interleukin-6 (IL-6); assay: Experiment 1: blood cytokine (IL-6) in mice with Propionivacterium acnes / lipopolysaccharide induced hepatopathy; format: in vivo; conditions: groups B (Brazilian licorice extract of Example 1, 25 mg), D (Chinese licorice extract of Comparative Example 1, 25 mg), F (prednisolone acetate 5 mg); i.p. four times; serum 2 h after LPS
Protocol: as §4, with “measurement of interleukin-6 (IL-6), which is a kind of cytokine,” for “glutamic-oxaloacetic transaminase activity (GOT)”, “performed.” for “measured.”, “Fluorescence” for “Enzyme”, “fluorescence” for “enzyme”, “The measured values in Table 1 show IL-6 levels (unit: picogram) per 1 ml serum.” for “Units.”

[10] = system: collagen induction arthritis model; assay: Experiment 2: collagen induction arthritis model, foot pad swelling (foot pad volume); format: in vivo, mice; conditions: 5 mg/head i.p. every other day
Protocol: These evaluations were performed in 0, 3rd, 4th, 5th, 6th, 7th and 8th weeks after the first immunity. The values in FIG. 4 are relative values based on the initial hind foot pad volumes.

T1 sequence (P16232 whole entry): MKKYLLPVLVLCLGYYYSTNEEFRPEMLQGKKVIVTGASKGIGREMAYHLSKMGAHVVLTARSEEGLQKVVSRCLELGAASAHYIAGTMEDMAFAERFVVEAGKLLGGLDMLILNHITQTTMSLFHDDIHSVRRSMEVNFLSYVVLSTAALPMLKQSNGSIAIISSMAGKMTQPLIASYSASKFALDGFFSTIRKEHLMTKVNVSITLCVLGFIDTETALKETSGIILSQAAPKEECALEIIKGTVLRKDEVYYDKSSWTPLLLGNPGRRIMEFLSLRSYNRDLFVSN

Row | IC50 [2] | Molecule | effect of inhibiting cytokine production [1] | inhibitory activity relative to glycirrhizin [2] | symptoms of arthritis [3] | effect of protecting and promoting liver function [4] | symptoms of encephalomyelitis [5] | further results
1 | 214 µM | CC1(C)[C@@H](O[C@@H]2O[C@H](C(=O)O)[C@@H](O)[C@H](O)[C@H]2O[C@@H]2O[C@H](C(=O)O)[C@@H](O)[C@H](O)[C@H]2O)CC[C@]2(C=O)[C@H]3CC[C@@H]4C5=C[C@@](C)(C(=O)O)CC[C@]5(C)CC[C@@]4(C)[C@]3(C)CC[C@@H]12 [PD-I, periandrin I] | show the effects of inhibiting cytokine production | about one fifth to one twentieth of glycirrhizin | eased the symptoms of arthritis | protecting and promoting liver function | eased the symptoms of arthritis and encephalomyelitis | –
2 | 581 µM | CC1(C(=O)O)C=C2C3CCC4C5(CO)CCC(OC6OC(C(=O)O)C(O)C(O)C6OC6OC(C(=O)O)C(O)C(O)C6O)C(C)(C)C5CCC4(C)C3(C)CCC2(C)CC1 (centres unmarked) [PD-III, periandrin III] | show the effects of inhibiting cytokine production | about one fifth to one twentieth of glycirrhizin | eased the symptoms of arthritis | protecting and promoting liver function | eased the symptoms of arthritis and encephalomyelitis | –
3 | 26.2 µM | CC1(C)[C@@H](O[C@H]2O[C@H](C(=O)O)[C@@H](O)[C@H](O)[C@H]2O[C@@H]2O[C@H](C(=O)O)[C@@H](O)[C@H](O)[C@H]2O)CC[C@]2(C)[C@H]3C(=O)C=C4[C@@H]5C[C@@](C)(C(=O)O)CC[C@]5(C)CC[C@@]4(C)[C@]3(C)CC[C@@H]12 [glycirrhizin, reference compound] | – | – | – | – | – | –
4 | – | CC(=O)OCC(=O)[C@@]1(O)CC[C@H]2[C@@H]3CCC4=CC(=O)C=C[C@]4(C)[C@H]3[C@@H](O)C[C@@]21C [prednisolone acetate] | – | – | – | – | – | blood GOT activity level, average of eight mice [6]: 350.705 Kermen Units; weight increase compared to the other groups (FIG. 6, words) [7]: had the least increase; arthritis index (ranking 0-5), group average ([3]; 3rd week): 0; arthritis index (ranking 0-5), group average ([3]; 4th week): 0; arthritis index (ranking 0-5), group average ([3]; 5th week): 0; arthritis index (ranking 0-5), group average ([3]; 6th week): 0; arthritis index (ranking 0-5), group average ([3]; 7th week): 0.125; arthritis index (ranking 0-5), group average ([3]; 8th week): 0.125; arthritis index (ranking 0-5), group average ([3]; Primary immunity): 0; average weight of mice (FIG. 2) [8]: reduced significantly; blood IL-6 level, average of eight mice [9]: 26473 picogram per 1 ml serum; hind foot pad volume, group average, relative to initial volume ([10]; 3rd week): 99.2; hind foot pad volume, group average, relative to initial volume ([10]; 4th week): 95.2; hind foot pad volume, group average, relative to initial volume ([10]; 5th week): 101.1; hind foot pad volume, group average, relative to initial volume ([10]; 6th week): 102.4; hind foot pad volume, group average, relative to initial volume ([10]; 7th week): 95.5; hind foot pad volume, group average, relative to initial volume ([10]; 8th week): 97.9; hind foot pad volume, group average, relative to initial volume ([10]; Primary immunity): 100; time at which a few rats developed encephalomyelitis ([5]; group R, 5 mg/Kg of body weight i.p. once a day for 12 days): 8-11 days after the injection of emulsion
5 | 150 µM | periandrin II [PD-II] | show the effects of inhibiting cytokine production | about one fifth to one twentieth of glycirrhizin | eased the symptoms of arthritis | protecting and promoting liver function | eased the symptoms of arthritis and encephalomyelitis | –
6 | 240 µM | periandrin IV [PD-IV] | show the effects of inhibiting cytokine production | about one fifth to one twentieth of glycirrhizin | eased the symptoms of arthritis | protecting and promoting liver function | eased the symptoms of arthritis and encephalomyelitis | –
